# Reference: patent US12121510B2 (Cedars-Sinai Medical Center, priority 2016, dated 2024)
# Read-outs that look alike come from different tables or passages of the source.
# What was measured:
# A549 or A549/DDP cells = experiment: CIS IC50 with constant DZ-SIM ester or amide, Crystal Violet assay; type: cell-based, human; conditions: combination with CIS; 72 h
# Description: Cell proliferation is determined by a Crystal Violet assay. The data represent the mean+/−SEM for two assays done in quadruplicate.
# Namalwa = experiment: Lymphoma cell growth IC50 (MTT); type: cell-based, human
# Text: (§1) Exemplary Embodiments are generally performed as follows, unless otherwise noted. Simvastatin is purchased from Ark Pharm, Inc. (Arlington Heights, IL). Cisplatin (CIS) is purchased from MedKoo Biosciences, Inc. (Chapel Hill, NC). Dihydroartemisinin is purchased from TCI America (Portland, OR). All other chemicals and reagents are purchased from standard sources such as Sigma-Aldrich and/or VWR and are of highest quality available. Puromycin dihydrochloride was purchased from Alfa Aesar (Tewksbury, MA). Deionized water ([…]) used for making solutions is obtained from Milli-Q Direct Ultrapure Water System from Millipore (Billerica, MA, USA). All intermediates are characterized by 1H NMR and mass analysis and the purity of compounds are analyzed by HPLC. 1H NMR data are collected on Bruker 400 MHz spectrometers using standard parameters; chemical shifts are reported in ppm (δ) in reference to residual non-deuterated solvent. ESI mass spectroscopy analysis is performed using a Thermo Fisher LTQ Orbitrap Elite system. IC50 is the half maximal inhibitory concentration and determined is determined by crystal violet assay unless otherwise noted.
# (§2) The crystal violet assay is performed as follows, unless otherwise noted. Cell lines are supplemented with RPMI 1640 medium, 10% fetal bovine serum, 1% PenStrep, and placed in a humidified atmosphere containing 5% CO2 at 37° C. 5,000 cells/well renal cancer cells and 10,000 cells/well lymphoma cells are seeded in 96 well plates in 100 microliter medium/per well for 24 h. […] Renal cancer cells are fixed with 3.7% paraformaldehyde for 15 minutes and are stained with Crystal violet solution (0.5% in 25% methanol) for 30 minutes. After rinsing with water cell layers are dried and decolorized with Sorenson citrate with shaking for 20 minutes. Light absorption of the extracted supernatant is read at 595 nm. Lymphoma cell growth was evaluated using MTT and cells are incubated for 4 hours. 100 microliters of isopropanol is added, and the extracted supernatant fraction is read at absorption maximum of 595 nm.
# (§3) Standard cell culture conditions typically are RPMI 1640 medium, 10% fetal bovine serum, 1% PenStrep, and are performed in a humidified atmosphere containing 5% CO2 at 37° C. Generally, 5,000 cells/well-10,000 cells/well are seeded in 96 well plates in 100 microliter medium/per well for 24 h, or as described in Example 16, unless otherwise noted. Certain cells require specialized media, growth factors, antibiotics, or culture condition adjustments, as will be apparent to a person of ordinary skill in the art.
# as §2, with “Cell” for “The crystal violet assay is performed as follows, unless otherwise noted. Cell”, “cultured as follows. […]” for “supplemented with RPMI 1640 medium, 10% fetal bovine serum, 1% PenStrep, and placed in a humidified atmosphere containing 5% CO2 at 37° C.”, “is” for “was”
# Caki-1 = experiment: Renal cancer cell growth IC50 (crystal violet); type: cell-based, human; conditions: Caki-1, read-out: IC50
# Text: as §1, §2, §3
# as §2, with “Cell” for “The crystal violet assay is performed as follows, unless otherwise noted. Cell”, “cultured as follows. […]” for “supplemented with RPMI 1640 medium, 10% fetal bovine serum, 1% PenStrep, and placed in a humidified atmosphere containing 5% CO2 at 37° C.”, “is” for “was”
# C4-2B = experiment: Cancer cell growth IC50 (crystal violet); type: cell-based
# Text: as §1, §2, §3
# CTC 752-S-1 = experiment: Circulating tumor cell growth IC50 / sensitization; type: cell-based, human
# Text: as §1, §3
# Pancreatic cancer cells are cultured for 72 hours in vitro and exposed to the conventional chemotherapeutic drugs Gemcitabine (GEM) and Paclitaxel (PAC), known to inhibit pancreatic cancer growth in patients. GEM (or PAC) alone are compared to a combination with SIM, or a combination with DZ-SIM. […] Representative results are illustrated in the graphs in FIG. 3.
# Cells are cultured according to their standard culturing conditions, and IC50s are determined as described herein-above.
# Representative results of the determined IC50s are shown in the table below for the indicated cancer cells cultured in vitro, including CTCs (C752-S-1), B-Cell Lymphoma (Namalwa), prostate cancer cells (C4-2B), and renal cancer cells (Caki-1). The cells are cultured according to their standard culturing conditions, and IC50s are determined as described herein-above.
# Daudi = experiment: Lymphoma cell growth IC50 (MTT); type: cell-based, human; conditions: Homo sapiens, Example 13, 72 h, read-out: IC50
# Text: as §1, §2, §3
# as §2, with “Cell” for “The crystal violet assay is performed as follows, unless otherwise noted. Cell”, “cultured as follows. […]” for “supplemented with RPMI 1640 medium, 10% fetal bovine serum, 1% PenStrep, and placed in a humidified atmosphere containing 5% CO2 at 37° C.”, “is” for “was”
# Raji = experiment: Lymphoma cell growth IC50 (MTT); type: cell-based, human; conditions: Homo sapiens, Example 13, 72 h, read-out: IC50
# Text: as §1, §2, §3
# as §2, with “Cell” for “The crystal violet assay is performed as follows, unless otherwise noted. Cell”, “cultured as follows. […]” for “supplemented with RPMI 1640 medium, 10% fetal bovine serum, 1% PenStrep, and placed in a humidified atmosphere containing 5% CO2 at 37° C.”, “is” for “was”
# Ramos = experiment: Lymphoma cell growth IC50 (MTT); type: cell-based, human; conditions: Homo sapiens, Example 13, 72 h, read-out: IC50
# Text: as §1, §2, §3
# as §2, with “Cell” for “The crystal violet assay is performed as follows, unless otherwise noted. Cell”, “cultured as follows. […]” for “supplemented with RPMI 1640 medium, 10% fetal bovine serum, 1% PenStrep, and placed in a humidified atmosphere containing 5% CO2 at 37° C.”, “is” for “was”
# 22Rv1 = experiment: Cancer cell growth IC50 (crystal violet); type: cell-based, human; conditions: Homo sapiens, Example 13, 72 h
# Text: as §1
# (§4) The crystal violet assay is performed as follows, unless otherwise noted. Cell lines are supplemented with RPMI 1640 medium, 10% fetal bovine serum, 1% PenStrep, and placed in a humidified atmosphere containing 5% CO2 at 37° C. 5,000 cells/well renal cancer cells and 10,000 cells/well lymphoma cells are seeded in 96 well plates in 100 microliter medium/per well for 24 h. […] Renal cancer cells are fixed with 3.7% paraformaldehyde for 15 minutes and are stained with Crystal violet solution (0.5% in 25% methanol) for 30 minutes. After rinsing with water cell layers are dried and decolorized with Sorenson citrate with shaking for 20 minutes. Light absorption of the extracted supernatant is read at 595 nm. Lymphoma cell growth was evaluated using MTT and cells are incubated for 4 hours. 100 microliters of isopropanol is added, and the extracted supernatant fraction is read at absorption maximum of 595 nm. […]
# ARCaP-E = experiment: Cancer cell growth IC50 (crystal violet); type: cell-based; conditions: Example 13, 72 h
# Text: as §1, §2, §3
# C4-2 = experiment: Cancer cell growth IC50 (crystal violet); type: cell-based; conditions: C4-2; Example 13; C42; 72 h
# Text: as §1, §2, §3
# LNCaP = experiment: Cancer cell growth IC50 (crystal violet); type: cell-based; conditions: Homo sapiens, Example 13, 72 h
# Text: as §1, §2, §3
# MCF-7 = experiment: Cancer cell growth IC50 (crystal violet); type: cell-based; conditions: Homo sapiens, MCF7, Example 13, 72 h
# Text: as §1, §2, §3
# PC3M = experiment: Cancer cell growth IC50 (crystal violet); type: cell-based; conditions: Homo sapiens, PC-3M, Example 13, 72 h
# Text: as §1, §2, §3
# PC3 = experiment: Cancer cell growth IC50 (crystal violet); type: cell-based; conditions: Homo sapiens, PC-3, Example 13, 72 h
# Text: as §1, §2, §3
# U87 = experiment: Cancer cell growth IC50 (crystal violet); type: cell-based; conditions: Homo sapiens, U-87 MG, Example 13, 72 h
# Text: as §1, §2, §3
# MIAPaCa II = experiment: Cancer cell growth IC50 / sensitization (crystal violet); type: cell-based; conditions: MIA PaCa-2, Example 13, 72 h
# Text: as §1, §4
# [1] = test system: Ramos, a B-cell lymphoma, cultured as 3-D spheroids; experiment: Cell viability IC50 in 3-D spheroids; type: cell-based, human; conditions: Homo sapiens; Ramos 3-D spheroids; 72 h; single agent
# Text: as §1
# Cancer cells were Ramos, a B-cell lymphoma, cultured as 3-D spheroids, cultured according to their standard culturing conditions.
# 22Rv1 tumors = experiment: Prostate tumor xenograft growth; type: in vivo, mice; conditions: IP twice per week, 37 days; SIM 1.1 mg/kg, DZ-SIM 5.5 mg/kg, DT 8 mg/kg
# Description: A human prostate tumor xenograft model, 22Rv1 in immune compromised mice, is employed as follows. 1×10^6 freshly harvested cells of a cultured human prostate carcinoma cell line, 22Rv1, are inoculated s.q. in mice. Mice bearing 22Rv1 tumors (10 tumors/group) are randomized into 7 groups on day-1, and administered drugs by IP (intraperitoneally) at the next day (day-2), and subsequently twice per week, using the following drugs and dosages: a control/vehicle (V, i.e. no drug), DZ (5 μM or 3.9 mg/kg, calculated based on the body weight of mice which averaged 20 grams), SIM (5 μM or 1.1 mg/kg), DZ-SIM (5 μM or 5.5 mg/kg), docetaxel (DT, 8 mg/kg), SIM+DT (drug doses as indicated), and DZ-SIM+DT (drug doses as indicated). Administration is continued for a total of 37 days, and tumor volumes are measured at the indicated times (see FIG. 4). […] Thus therapeutically resistant prostate tumors can be rendered sensitive by DZ-SIM but not SIM.
# [2] = Homo sapiens, Example 23, read-out: IC50
# [3] = Homo sapiens, Example 23, CTC 752-S-1
smiles,measurement,setting,value
CCC(C)(C)C(=O)O[C@H]1C[C@@H](C)C=C2C=C[C@H](C)[C@H](CC[C@@H](O)C[C@@H](O)CC(=O)CCCCNC(=O)CCCCCN3/C(=C/C=C4\CCCC(/C=C/C5=[N+](CCCCS(=O)(=O)[O-])c6ccccc6C5(C)C)=C4Cl)C(C)(C)c4ccccc43)[C@H]21 [DZ-SIM amide],Sensitization of cancer cells to CIS,A549 or A549/DDP cells,sensitize cancer cells to CIS
"C[C@@H]1CC[C@H]2[C@@H](C)C(=O)O[C@@H]3O[C@@]4(C)CC[C@@H]1[C@]32OO4 [ART, Artemisinin]",IC50,"Namalwa; Homo sapiens, Example 22, read-out: IC50",> 64000 nM
same,IC50,"Caki-1; Homo sapiens, Example 22",> 64000 nM
same,IC50,C4-2B; Example 22,657 nM
same,IC50,"CTC 752-S-1; Homo sapiens, Example 22, CTC 752-S-1, 3D cultured tumor spheroids",> 64000 nM
COc1cccc2c1C(=O)c1c(O)c3c(c(O)c1C2=O)C[C@@](O)(C(=O)CO)C[C@@H]3O[C@H]1C[C@H](N)[C@H](O)[C@H](C)O1 [Doxorubicin],IC50,Namalwa; [2],666 nM
same,IC50,"Caki-1; Homo sapiens, Example 23",880 nM
same,IC50,C4-2B; Example 23,43.1 nM
same,IC50,CTC 752-S-1; [3],1820 nM
"CCC(C)(C)C(=O)O[C@H]1C[C@@H](C)C=C2C=C[C@H](C)[C@H](CC[C@@H]3C[C@@H](O)CC(=O)O3)[C@H]21 [SIM, Simvastatin]",IC50,Daudi,15000 nM
same,IC50,"Namalwa; Homo sapiens, Example 13, 72 h, read-out: IC50",13400 nM
same,IC50,Raji,32500 nM
same,IC50,Ramos,13000 nM
same,IC50,22Rv1,3520 nM
same,IC50,ARCaP-E,5610 nM
same,IC50,"C4-2B; Example 13, 72 h",1880 nM
same,IC50,C4-2,7730 nM
same,IC50,LNCaP,3760 nM
same,IC50,MCF-7,2690 nM
same,IC50,PC3M,248 nM
same,IC50,PC3,991 nM
same,IC50,U87,506 nM
same,IC50,MIAPaCa II,592 nM
same,IC50,[1],13000 nM
COc1ccc(C[C@H](NC(=O)CCCCCN2/C(=C/C=C3\CCCC(/C=C/C4=[N+](CCCCS(=O)(=O)[O-])c5ccccc5C4(C)C)=C3Cl)C(C)(C)c3ccccc32)C(=O)NC2C(CO)OC(n3cnc4c(N(C)C)ncnc43)C2O)cc1 (some centres unmarked) [DZ-Puromycin],IC50,Namalwa; [2],22400 nM
same,IC50,"Caki-1; Homo sapiens, Example 23",> 64000 nM
same,IC50,C4-2B; Example 23,1320 nM
same,IC50,CTC 752-S-1; [3],31400 nM
CC1CCC2C(C)C(OC(=O)CCCCCN3C(=CC=C4CCCC(C=CC5=[N+](CCCCS(=O)(=O)[O-])c6ccccc6C5(C)C)=C4Cl)C(C)(C)c4ccccc43)OC3OC4(C)CCC1C32OO4 (centres unmarked) [DZ-ART ester],IC50,"Namalwa; Example 22, read-out: IC50",1300 nM
same,IC50,Caki-1; Example 22,703 nM
same,IC50,C4-2B; Example 22,291 nM
same,IC50,"CTC 752-S-1; Example 22, CTC 752-S-1, 3D cultured tumor spheroids",1640 nM
COc1ccc(C[C@H](N)C(=O)N[C@H]2[C@@H](O)[C@H](n3cnc4c(N(C)C)ncnc43)O[C@@H]2CO)cc1 [Puromycin],IC50,Namalwa; [2],969 nM
same,IC50,"Caki-1; Homo sapiens, Example 23",740 nM
same,IC50,C4-2B; Example 23,249 nM
same,IC50,CTC 752-S-1; [3],4870 nM
"CC(=O)O[C@@]12CO[C@@H]1C[C@H](O)[C@@]1(C)C(=O)[C@H](O)C3=C(C)[C@@H](OC(=O)[C@H](O)[C@@H](NC(=O)OC(C)(C)C)c4ccccc4)C[C@@](O)([C@@H](OC(=O)c4ccccc4)[C@H]21)C3(C)C [DT, Docetaxel]",Growth of 22Rv1 tumors in vivo (tumor volume),22Rv1 tumors,ineffective
COc1cccc2c1C(=O)c1c(O)c3c(c(O)c1C2=O)C[C@@](O)(C(=O)CO)C[C@@H]3O[C@H]1C[C@H](NC(=O)CCCCCN2/C(=C/C=C3\CCCC(/C=C/C4=[N+](CCCCS(=O)(=O)[O-])c5ccccc5C4(C)C)=C3Cl)C(C)(C)c3ccccc32)[C@@H](O)[C@H](C)O1 [DZ-Doxorubicin],IC50,Namalwa; [2],6230 nM
same,IC50,"Caki-1; Homo sapiens, Example 23",> 64000 nM
same,IC50,C4-2B; Example 23,206 nM
same,IC50,CTC 752-S-1; [3],3410 nM
